Experiment [1] relates to B16-F10 cells. Briefly: Cell proliferation assay (CellTiter-Glo) in B16-F10 cells with IFN-gamma. The experiment is classed as cell-based. The note with it: mouse IFN-gamma 10 ng/mL, read-out: PTPN2 Prolif 5d B16F10 EC50. The procedure:
B16-F10 cells (ATCC, Manassas, VA, #CRL-6475) were cultured in DMEM growth medium (ThermoFisher Scientific, Waltham, MA, #11995-040) supplemented with 10% heat inactivated FBS (ThermoFisher Scientific, #16140-071) and 1% pen/strep (ThermoFisher Scientific, #15140-122). The cells were seeded into two white opaque 384-well tissue culture treated microplates (PerkinElmer, Waltham, MA, #6007688) at a density of 100 cells/well in 20 uL total volume and incubated overnight at 37 C and 5% CO2. 30 nL of compounds dissolved in DMSO were then transferred from a source plate into target wells with the Echo650 acoustic liquid handler (Beckman Coulter, Indianapolis, IN). Negative control wells received 30 nL of DMSO only (0.15% final concentration). Plates were returned to the incubator for 1 hour and then cells treated with either 5 uL of growth medium or 5 uL of growth medium containing 50 ng/ml of recombinant mouse IFN-gamma protein (R&D Systems, Minneapolis, MN, #485-MI/CF, 10 ng/mL final concentration) using the Assist automated pipetting platform (INTEGRA Biosciences, Hudson, NH). Plates were incubated at 37 C for 4 days and cell proliferation assayed with the CellTiter-Glo reagent (Promega, Madison, WI, #G7573, 25 uL per well). […] Off-target compound mediated cytotoxicity was identified by checking for growth inhibition in the absence of IFNg.
For orientation: In ATP-based viability assays light output follows the ATP content of the culture.

For experiment [2], the target named is T1, PTPN2 (Homo sapiens, UniProt P17706).
T1 sequence (P17706 1-415): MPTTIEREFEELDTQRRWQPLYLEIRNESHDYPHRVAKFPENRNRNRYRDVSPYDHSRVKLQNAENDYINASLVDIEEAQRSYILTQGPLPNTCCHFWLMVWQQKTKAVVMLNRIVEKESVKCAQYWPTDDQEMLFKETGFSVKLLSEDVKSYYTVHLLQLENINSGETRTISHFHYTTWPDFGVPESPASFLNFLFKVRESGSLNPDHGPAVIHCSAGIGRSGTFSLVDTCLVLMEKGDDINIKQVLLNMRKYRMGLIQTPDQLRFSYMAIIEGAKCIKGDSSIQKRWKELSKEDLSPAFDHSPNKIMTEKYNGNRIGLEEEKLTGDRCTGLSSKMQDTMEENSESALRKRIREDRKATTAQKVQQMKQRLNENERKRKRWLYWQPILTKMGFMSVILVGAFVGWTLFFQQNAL
Briefly: Phosphatase activity assay using DiFMUP as substrate. The experiment is classed as biochemical. Also noted: purchased MilliporeSigma SRP5075. The note with it: 10 mM DTT, PTPN2 0.15 nM, room temperature, read-out: PTPN2 BCHEM DIFMUP IC50. On the procedure:
The PTPN2 biochemical assay was performed as follows, a 5× stock solution of human PTPN2 (SRP5075, MilliporeSigma, Burlington, MA) and a 1.25× stock solution of DiFMUP (D6567, ThermoFisher Scientific, Waltham, MA), were prepared in 1× reaction buffer consisting of 50 mM HEPES, pH 7.4, 1 mM EDTA, 150 mM NaCl, 0.2 mg/mL BSA, 100 U/mL catalase and 10 mM DTT. […] of the DiFMUP substrate solution, for a final concentration of […] DiFMUP substrate, was added to a Corning 3574 384-well, white, non-binding surface microtiter plate containing […] of serially diluted test compounds prepared in DMSO. The reactions were started with the addition of […] of the enzyme solution, for a final PTPN2 concentration of 0.15 nM, and monitored every 105 seconds for 60 minutes at λEX 360/λEM 460 in a BioTek Synergy HTX plate reader (Agilent Technologies, Santa Clara, CA) at room temperature. The initial linear portions of the progress curves were fit according to a linear equation to yield the slopes and converted to % inhibition based on a value of 100% activity for the no inhibitor treated control. IC50 values of each compound were obtained by fitting the % inhibition-compound concentration curves using Dotmatics software (Dotmatics, Bishops Stortford, Hertfordshire, England)
(§1) For IC50 data, High DDT concentration and/or DiFMUP substrate assays were used; a skilled artisan may use either assay.

Experiment [3] concerns the target T1, PTPN2. In words: PTPN2 biochemical assay (PhosphoSens, substrate AQT0264). The note with it: PhosphoSens substrate AQT0264 20 μM, room temperature; read-out: PTPN2 BCHEM IC50. The procedure: A PhosphoSens® kinase assay was performed as described by the vendor (AssayQuant Technologies, Marlborough, MA). Briefly, 1000× solutions of compounds were prepared in DMSO via serial dilution of the 10 mM DMSO stocks using 3-fold intervals in a 384-well reagent plate. 50 nL of the compound dilution series was then added to the corresponding wells of a 384-well assay plate. 40 mL of 1.25× substrate (AQT0264) in 1× assay buffer (50 mM HEPES pH 7.5, 500 μM EGTA, […] MgCl2, 0.01% Brij-35, 1% Glycerol, 1 mM DTT, and 0.2 mg/mL BSA) was transferred to each well of the assay plate to achieve a final substrate concentration of 20 μM. Finally, […] of 5×PTPN2 enzyme stock was added to each well of the assay plate for a final enzyme concentration of […]. Reaction progress curves were collected by sampling fluorescence intensity at the excitation wavelength 360 nm (λex360) and emission wavelength 480 nm (λem480) every 71 seconds for one hour using a Synergy H4 plate reader (BioTek Instruments/Agilent Technologies, Winooski, VT) at room temperature.
as §1

In experiment [4] the test system is phospho-STAT1 (Tyr701). In words: Phospho-STAT1 (Tyr701) HTRF assay in B16-F10 cells. The experiment is classed as cell-based. To be noted: mouse IFN-gamma 100 ng/ml, 1 hour, read-out: pSTAT1 HTRF B16 EC50. On the procedure:
B16-F10 cells (ATCC, Manassas, VA, #CRL-6475) were cultured in DMEM growth medium (ThermoFisher Scientific, Waltham, MA, #11995-040) supplemented with 10% heat inactivated FBS (ThermoFisher Scientific, #16140-071) and 1% pen/strep (ThermoFisher Scientific, #15140-122). The cells were seeded into a white opaque 384-well tissue culture treated microplate (PerkinElmer, Waltham, MA, #6007688) at a density of 10,000 cells/well in 20 uL total volume and incubated overnight at 37 C and 5% CO2. 30 nL of compounds dissolved in DMSO were then transferred from a source plate into target wells with the Echo650 acoustic liquid handler (Beckman Coulter, Indianapolis, IN). Negative control wells received 30 nL of DMSO only (0.15% final concentration). Plates were returned to the incubator for 1 hour and then cells treated with either 5 uL of growth medium or 5 uL of growth medium containing 500 ng/ml of recombinant mouse IFN-gamma protein (R&D Systems, Minneapolis, MN, #485-MI/CF, 100 ng/ml final concentration) using the Assist automated pipetting platform (INTEGRA Biosciences, Hudson, NH). Plates were incubated at 37 C for 1 hour and assayed for phosphorylated STAT1 protein levels with the phospho-STAT1 (Tyr701) HTRF kit (Cisbio, Bedford, MA, #63ADK026PEH) according to manufacturer's instructions. HTRF signal intensity was collected with the En Vision 2105 plate reader (PerkinElmer) 24 hours later and analyzed with the Dotmatics software platform to calculate compound IC50 values.
For orientation: TR-FRET usually uses a lanthanide donor and a delayed reading to cut background.

Read-outs that look alike come from different tables or passages of the source.

Usually EC50 stands for the concentration at which the effect is half-maximal. By IC50 is commonly meant the concentration that gives 50% inhibition.

Take `Cc1cc(NCc2cc(O)c(N3CC(=O)NS3(=O)=O)c(F)c2)nc(C)n1` [EXAMPLE 17, 5-[4-[[(2,6-dimethylpyrimidin-4-yl)amino]methyl]-2-fluoro-6-hydroxy-phenyl]-1,1-dioxo-1,2,5-thiadiazolidin-3-one]: the half-maximal effective concentration (EC50) in experiment [1] (120 h) was 2210 nM; in experiment [4], 1880 nM. The IC50 in experiment [2] worked out at 50 nM; in experiment [3], 20 nM.
For the molecule `Cc1cc(NCc2cc(O)c(N3CC(=O)NS3(=O)=O)c(F)c2)ncn1` [EXAMPLE 26, 5-[2-fluoro-6-hydroxy-4-[[(6-methylpyrimidin-4-yl)amino]methyl]phenyl]-1,1-dioxo-1,2,5-thiadiazolidin-3-one], the EC50 in experiment [1] (120 h) turned out to be 470 nM; in experiment [4], 1200 nM. The concentration for half-maximal inhibition (IC50) in experiment [2] is 20 nM; in experiment [3] it was 4 nM.
On to “6-[[3-fluoro-5-hydroxy-4-(1,1,4-trioxo-1,2,5-thiadiazolidin-2-yl)phenyl]methylamino]-4-methyl-pyridine-3-carbonitrile [EXAMPLE 5]”, for which the results for the EC50 in experiment [1] and in experiment [4] were 4760 nM and 4470 nM, respectively. Also, the IC50 in experiment [2] and in experiment [3] was 20 nM throughout.
On to `Cc1cnc(C)c(NCc2cc(O)c(N3CC(=O)NS3(=O)=O)c(F)c2)n1` [EXAMPLE 18, 5-[4-[[(3,6-dimethylpyrazin-2-yl)amino]methyl]-2-fluoro-6-hydroxy-phenyl]-1,1-dioxo-1,2,5-thiadiazolidin-3-one], for which the 50% effective concentration (EC50) in experiment [1] (120 h) and in experiment [4] was greater than 15000 nM in each case. For the same molecule, the concentration for half-maximal inhibition (IC50) in experiment [2] came out at 110 nM; in experiment [3] it was 50 nM.
Regarding `CCN(Cc1cc(O)c(N2CC(=O)NS2(=O)=O)c(F)c1)c1nc(C)cc(-c2ccccc2C#N)n1` [EXAMPLE 14, 2-[2-[ethyl-[[3-fluoro-5-hydroxy-4-(1,1,4-trioxo-1,2,5-thiadiazolidin-2-yl)phenyl]methyl]amino]-6-methyl-pyrimidin-4-yl]benzonitrile], the EC50 in experiment [1] (120 h) and in experiment [4] was greater than 15000 nM each time. Also, the IC50 came out at 490 nM in experiment [2] and 210 nM in experiment [3].
Consider `N#Cc1cnc(NCc2cc(O)c(N3CC(=O)NS3(=O)=O)c(F)c2)nc1` [EXAMPLE 9, 2-[[3-fluoro-5-hydroxy-4-(1,1,4-trioxo-1,2,5-thiadiazolidin-2-yl)phenyl]methylamino]pyrimidine-5-carbonitrile], for which the EC50 came out at 1290 nM in experiment [1] (120 h) and 490 nM in experiment [4]. Further, the IC50 turned out to be 210 nM in experiment [2] and 30 nM in experiment [3].
`CC(C)c1cncc(NCc2cc(O)c(N3CC(=O)NS3(=O)=O)c(F)c2)c1` [EXAMPLE 13, 5-[2-fluoro-6-hydroxy-4-[[(5-isopropyl-3-pyridyl)amino]methyl]phenyl]-1,1-dioxo-1,2,5-thiadiazolidin-3-one]: the figures for the concentration for a half-maximal effect (EC50) in experiment [1] (120 h) and in experiment [4] were 1370 nM and 930 nM, respectively. Also, the IC50 in experiment [2] worked out at 50 nM; in experiment [3], 10 nM.

Source of the values: patent publication US20240228476A1, “INHIBITORS OF PROTEIN TYROSINE PHOSPHATASE, COMPOSITIONS, AND METHODS OF USE” (BRISTOL-MYERS SQUIBB COMPANY, priority 2022, published 2024).
